The target in assay [1] is T1, recombinant human renin (Homo sapiens, UniProt P00797).
T1 sequence (P00797 67-406): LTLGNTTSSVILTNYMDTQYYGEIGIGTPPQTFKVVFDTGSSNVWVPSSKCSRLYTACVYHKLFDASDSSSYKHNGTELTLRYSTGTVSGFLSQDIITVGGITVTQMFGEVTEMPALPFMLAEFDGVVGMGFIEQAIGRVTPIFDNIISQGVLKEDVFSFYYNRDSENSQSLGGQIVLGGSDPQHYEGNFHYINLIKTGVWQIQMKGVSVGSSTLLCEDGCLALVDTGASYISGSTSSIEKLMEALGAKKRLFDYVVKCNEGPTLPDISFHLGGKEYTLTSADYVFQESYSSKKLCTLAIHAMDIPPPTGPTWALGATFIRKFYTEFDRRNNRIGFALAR
The assay can be described thus: Primary renin inhibition assay: IC50 in buffer, 384 well MTP (Ang I EIA readout). The assay is classed as biochemical. On the procedure:
1. Enzyme Immuno Assay (EIA) to Estimate Ang I Accumulation and Renin Inhibition
1.1 Preparation of Ang I-BSA Conjugate
1.3 mg (1 μmol) of Ang I [1-10 (Bachem, H-1680)] and 17 mg (0.26 μmol) of BSA (Fluka, 05475) were dissolved in 4 mL of 0.1M phosphate buffer, pH 7.4, after which 2 mL of a 1:100 dilution of glutaraldehyde in H2O (Sigma G-5882) was added dropwise. The mixture was incubated overnight at 4° C., then dialyzed against 2 liters of 0.9% NaCl, twice for 4 h at rt, followed by dialysis against 2 liters of PBS 1× overnight at rt. The solution was then filtered with a Syringe filter, 0.45 μm (Nalgene, Cat. No. 194-2545). The conjugate can be stored in polypropylene tubes in 0.05% sodium azide at 4° C. for at least 12 months.
1.2 Preparation of BSA-Ang I Coated MTP […]
The renin assay was adapted from an assay described before (Fischli W. et al., Hypertension, 1991, 18:22-31) and consists of two steps: in the first step, recombinant human renin is incubated with its substrate (commercial human tetradecapeptide renin substrate) to create the product Angiotensin I (Ang I). In the second step, the accumulated Ang I is measured by an immunological assay (enzyme immuno assay, EIA). […]

Assay [2] concerns double transgenic rats with human renin and human angiotensinogen. The assay can be described thus: Hemodynamic measurements (telemetry method) in hypertensive double transgenic rats. The format is in vivo, rat. The note with it: female double transgenic rats. On the procedure: Hemodynamic Measurements (Telemetry Method)
Animals—Female double transgenic rats with human renin and human angiotensinogen were purchased from RCC Ltd, Füllingsdorf, Switzerland. All animals were maintained under identical conditions and had free access to normal pelleted rat chow and water. Rats were initially treated with enalapril (1 mg/kg/day) during 2 months. After approximately two weeks following cessation of enalapril treatment the double transgenic rats become hypertensive and reach mean arterial blood pressures in the range of 160-170 mmHg.
Transmitter implantation—The rats were anaesthetised with a mixture of 90 mg/kg Ketamin-HCl (Ketavet, Parke-Davis, Berlin FRG) and 10 mg/kg xylazin (Rompun, Bayer, Leverkusen, FRG) i.p. The pressure transmitter was implanted under aseptic conditions into the peritoneal cavity with the sensing catheter placed in the descending aorta below the renal arteries pointing upstream. The transmitter was sutured to the abdominal musculature and the skin closed.
Telemetry-System—Telemetry units were obtained from Data Sciences (St. Paul, Minn.). […] The tip of the catheter was filled with a viscous gel that prevents blood reflux and was coated with an antithrombogenic film to inhibit thrombus formation. The implants (length=2.5 cm, diameter=1.2 cm) weighted 9 g and have a typical battery life of 6 months. A receiver platform (RPC-1, Data Sciences) connected the radio signal to digitized input that was sent to a dedicated personal computer (Compaq, deskpro). Arterial pressures were calibrated by using an input from an ambient-pressure reference (APR-1, Data Sciences). Systolic, mean and diastolic blood pressure was expressed in millimeter of mercury (mmHg).
[…] The effect of the test substance is expressed as maximal decrease of mean arterial pressure (MAP) in the treated group versus the control group.

The results in this text go back to patent publication US7915259B2, “Diazabicyclononene derivatives and use thereof” (priority 2005, dated 2011).

The IC50 is the concentration at which inhibition is half-maximal.

For the compound `Cc1cc(Cl)c(OCCOc2ccc(C3=C(C(=O)N(Cc4cccc(C)c4C)C4CC4)[C@H]4CNC[C@@H](C3)N4)cc2)c(Cl)c1` [Compound (I′), (1R,5S)-7-{4-[2-(2,6-dichloro-4-methylphenoxy)ethoxy]-phenyl}-3,9-diazabicyclo[3.3.1]non-6-ene-6-carboxylic acid cyclopropyl-(2,3-dimethylbenzyl)amide], the IC50 in assay [1] turned out to be 0.3 nM. In addition, the “activity in the animal model” value in assay [2] (oral) is “active”. For the same compound, the entries for the “blood pressure decrease (maximal decrease of mean arterial pressure vs control group)” value in assay [2] (single oral dose of 3 mg/kg) and in assay [2] (single oral dose of 10 mg/kg) were 17 mmHg and 30 mmHg, respectively.
